Laboratory results published in PubChem BioAssay AID308 (DTP/NCI, 2004).
Where “and” joins values, the source holds several entries; their conditions need not be identical. Identical values can stand only once. Toxic doses and inconclusive results are not listed.

Test system: BDF1 mice, L1210 6-MP/6-TG resistant leukemia ip, survival T/C
Test: NCI In Vivo Anticancer Drug Screen. Data for tumor model L1210 Leukemia resistant to 6-MP and 6-Thioguanine; NSC 755, NSC 752 (intraperitoneal) in B6D2F1 (BDF1) mice
Settings: endpoint: mean survival time, higher = longer survival
Method: The antitumor activity of compounds was measured in mice bearing transplantable tumors. Survival or tumor size were measured and the results are expressed as the measurement made in the treated group (T) divided by the measurement made in the vehicle treated control group (C). The tumor model used in this assay is L1210 Leukemia resistant to 6-MP and 6-Thioguanine; NSC 755, NSC 752 (intraperitoneal) in B6D2F1 (BDF1) mice

Clc1ccc(C(c2ccccc2Cl)C(Cl)Cl)cc1 (configuration not stated)
T/C (dose: 23.0 mg/kg/injection, schedule: Q01DX Z (sc), vehicle: steriod suspending solution): 94 % of control
T/C (dose: 46.0 mg/kg/injection, schedule: Q01DX Z (sc), vehicle: steriod suspending solution): 97 % of control
T/C (dose: 93.0 mg/kg/injection, schedule: Q01DX Z (sc), vehicle: steriod suspending solution): 103 % of control
T/C (dose: 187.0 mg/kg/injection, schedule: Q01DX Z (sc), vehicle: steriod suspending solution): 101 % of control
T/C (dose: 375.0 mg/kg/injection, schedule: Q01DX Z (sc), vehicle: steriod suspending solution): 104 % of control
T/C (dose: 500.0 mg/kg/injection, schedule: Q01DX Z (sc), vehicle: steriod suspending solution): 100 % of control
T/C (dose: 750.0 mg/kg/injection, schedule: Q01DX Z (sc), vehicle: steriod suspending solution): 96 % of control
T/C (dose: 1000.0 mg/kg/injection, schedule: Q01DX Z (sc), vehicle: steriod suspending solution): 98 % of control

C[C@H](N)C(=O)N[C@@H]1[C@H]2C(=C(O)C[C@@H](O)[C@@H]2O)C(=O)O[C@@H]1C
T/C (dose: 330.0 mg/kg/injection, schedule: Q01DX015 (ip), vehicle: carboxymethylcellulose (CMC)): 152 % of control
T/C (dose: 500.0 mg/kg/injection, schedule: Q01DX Z (ip), vehicle: saline): 189 % of control
T/C (dose: 750.0 mg/kg/injection, schedule: Q01DX Z (ip), vehicle: saline): 185 % of control
T/C (dose: 2000.0 mg/kg/injection, schedule: Q01DX Z (ip), vehicle: saline): 100 % of control

[N-]=[N+]=CC(=O)NCC(=O)NN
T/C (dose: 62.0 mg/kg/injection, schedule: Q01DX Z (ip), vehicle: saline): 114 % of control

O=C(Nc1ccc(C2=NCCN2)cc1)c1ccc(C(=O)Nc2ccc(C3=NCCN3)cc2)cc1
T/C (dose: 18.75 mg/kg/injection, schedule: Q01DX Z (ip), vehicle: carboxymethylcellulose (CMC)): 154 % of control
T/C (dose: 25.0 mg/kg/injection, schedule: Q01DX Z (ip), vehicle: carboxymethylcellulose (CMC)): 151 % of control
T/C (dose: 27.0 mg/kg/injection, schedule: Q02DX010 (ip), vehicle: carboxymethylcellulose (CMC)): 312 % of control
T/C (dose: 40.0 mg/kg/injection, schedule: Q02DX010 (ip), vehicle: carboxymethylcellulose (CMC)): 317 % of control
T/C (dose: 50.0 mg/kg/injection, schedule: Q01DX Z (ip), vehicle: carboxymethylcellulose (CMC)): 219 % of control
T/C (dose: 60.0 mg/kg/injection, schedule: Q02DX010 (ip), vehicle: carboxymethylcellulose (CMC)): 296 % of control
T/C (dose: 75.0 mg/kg/injection, schedule: Q01DX Z (ip), vehicle: carboxymethylcellulose (CMC)): 188 % of control and 232 % of control
T/C (dose: 90.0 mg/kg/injection, schedule: Q02DX010 (ip), vehicle: carboxymethylcellulose (CMC)): 280 % of control
T/C (dose: 100.0 mg/kg/injection, schedule: Q01DX Z (ip), vehicle: carboxymethylcellulose (CMC)): 288 % of control and 295 % of control
T/C (dose: 135.0 mg/kg/injection, schedule: Q02DX010 (ip), vehicle: carboxymethylcellulose (CMC)): 312 % of control
T/C (dose: 150.0 mg/kg/injection, schedule: Q01DX Z (ip), vehicle: carboxymethylcellulose (CMC)): 300 % of control
T/C (dose: 200.0 mg/kg/injection, schedule: Q01DX Z (ip), vehicle: carboxymethylcellulose (CMC)): 186 % of control

COC12C(COC(N)=O)C3=C(C(=O)C(C)=C(N)C3=O)N1CC1C2N1C (configuration not stated)
T/C (dose: 1.3 mg/kg/injection, schedule: Q01DX015 (ip), vehicle: carboxymethylcellulose (CMC)): 166 % of control
T/C (dose: 1.9 mg/kg/injection, schedule: Q01DX015 (ip), vehicle: carboxymethylcellulose (CMC)): 120 % of control
T/C (dose: 2.0 mg/kg/injection, schedule: Q01DX015 (ip), vehicle: carboxymethylcellulose (CMC)): 254 % of control
T/C (dose: 2.9 mg/kg/injection, schedule: Q01DX015 (ip), vehicle: carboxymethylcellulose (CMC)): 181 % of control
T/C (dose: 3.0 mg/kg/injection, schedule: Q01DX015 (ip), vehicle: carboxymethylcellulose (CMC)): 229 % of control
T/C (dose: 4.4 mg/kg/injection, schedule: Q01DX015 (ip), vehicle: carboxymethylcellulose (CMC)): 123 % of control
T/C (dose: 4.5 mg/kg/injection, schedule: Q01DX015 (ip), vehicle: carboxymethylcellulose (CMC)): 189 % of control
T/C (dose: 6.75 mg/kg/injection, schedule: Q01DX015 (ip), vehicle: carboxymethylcellulose (CMC)): 166 % of control

CCCCNc1ncnc2c1cnn2C
T/C (dose: 2.5 mg/kg/injection, schedule: Q01DX Z (ip), vehicle: saline): 105 % of control
T/C (dose: 5.0 mg/kg/injection, schedule: Q01DX Z (ip), vehicle: saline): 105 % of control
T/C (dose: 10.0 mg/kg/injection, schedule: Q01DX Z (ip), vehicle: saline): 105 % of control
T/C (dose: 20.0 mg/kg/injection, schedule: Q01DX Z (ip), vehicle: saline): 104 % of control
T/C (dose: 31.0 mg/kg/injection, schedule: Q01DX Z (ip), vehicle: saline): 119 % of control
T/C (dose: 62.5 mg/kg/injection, schedule: Q01DX Z (ip), vehicle: saline): 104 % of control
T/C (dose: 125.0 mg/kg/injection, schedule: Q01DX Z (ip), vehicle: saline): 95 % of control

C=C(C)CSc1ncnc2nc[nH]c12
T/C (dose: 62.0 mg/kg/injection, schedule: Q01DX015 (ip), vehicle: other): 109 % of control
T/C (dose: 125.0 mg/kg/injection, schedule: Q01DX015 (ip), vehicle: other): 95 % of control
T/C (dose: 250.0 mg/kg/injection, schedule: Q01DX015 (ip), vehicle: other): 100 % of control

CCC1(Sc2ncnc3nc[nH]c23)C(=O)NC(=O)NC1=O
T/C (dose: 6.25 mg/kg/injection, schedule: Q01DX010 (ip), vehicle: alkali diluted with saline): 104 % of control
T/C (dose: 12.5 mg/kg/injection, schedule: Q01DX010 (ip), vehicle: alkali diluted with saline): 96 % of control
T/C (dose: 25.0 mg/kg/injection, schedule: Q01DX010 (ip), vehicle: alkali diluted with saline): 107 % of control
T/C (dose: 50.0 mg/kg/injection, schedule: Q01DX010 (ip), vehicle: alkali diluted with saline): 102 % of control
T/C (dose: 100.0 mg/kg/injection, schedule: Q01DX010 (ip), vehicle: alkali diluted with saline): 104 % of control
T/C (dose: 200.0 mg/kg/injection, schedule: Q01DX010 (ip), vehicle: alkali diluted with saline): 107 % of control

Nc1ccc(C(=O)NO)cc1
T/C (dose: 112.5 mg/kg/injection, schedule: Q01DX015 (ip), vehicle: carboxymethylcellulose (CMC)): 102 % of control
T/C (dose: 225.0 mg/kg/injection, schedule: Q01DX015 (ip), vehicle: carboxymethylcellulose (CMC)): 91 % of control
T/C (dose: 450.0 mg/kg/injection, schedule: Q01DX015 (ip), vehicle: carboxymethylcellulose (CMC)): 90 % of control
T/C (dose: 900.0 mg/kg/injection, schedule: Q01DX015 (ip), vehicle: carboxymethylcellulose (CMC)): 97 % of control

N[C@@H](Cc1ccc(N(CCCl)CCCl)cc1)C(=O)O
T/C (dose: 4.0 mg/kg/injection, schedule: Q01DX Z (ip), vehicle: carboxymethylcellulose (CMC)): 107 % of control
T/C (dose: 6.0 mg/kg/injection, schedule: Q01DX Z (ip), vehicle: carboxymethylcellulose (CMC)): 122 % of control
T/C (dose: 8.0 mg/kg/injection, schedule: Q01DX Z (ip), vehicle: carboxymethylcellulose (CMC)): 119 % of control
T/C (dose: 12.0 mg/kg/injection, schedule: Q01DX Z (ip), vehicle: carboxymethylcellulose (CMC)): 122 % of control

CC(C)n1cnc2c(=S)nc[nH]c21
T/C (dose: 2.5 mg/kg/injection, schedule: Q01DX015 (ip), vehicle: carboxymethylcellulose (CMC)): 96 % of control
T/C (dose: 5.0 mg/kg/injection, schedule: Q01DX015 (ip), vehicle: carboxymethylcellulose (CMC)): 96 % of control
T/C (dose: 10.0 mg/kg/injection, schedule: Q01DX015 (ip), vehicle: carboxymethylcellulose (CMC)): 96 % of control
T/C (dose: 20.0 mg/kg/injection, schedule: Q01DX015 (ip), vehicle: carboxymethylcellulose (CMC)): 94 % of control
T/C (dose: 42.0 mg/kg/injection, schedule: Q01DX015 (ip), vehicle: carboxymethylcellulose (CMC)): 86 % of control and 100 % of control
T/C (dose: 63.0 mg/kg/injection, schedule: Q01DX015 (ip), vehicle: carboxymethylcellulose (CMC)): 86 % of control
T/C (dose: 95.0 mg/kg/injection, schedule: Q01DX015 (ip), vehicle: carboxymethylcellulose (CMC)): 86 % of control

C[C@]12C=CC(=O)C=C1CC[C@@H]1[C@@H]2C(=O)C[C@@]2(C)[C@H]1CC[C@]2(O)C(=O)CO
T/C (dose: 50.0 mg/kg/injection, schedule: Q01DX Z (sc), vehicle: steriod suspending solution): 105 % of control
T/C (dose: 100.0 mg/kg/injection, schedule: Q01DX Z (sc), vehicle: steriod suspending solution): 100 % of control
T/C (dose: 150.0 mg/kg/injection, schedule: Q01DX Z (sc), vehicle: steriod suspending solution): 93 % of control
T/C (dose: 200.0 mg/kg/injection, schedule: Q01DX Z (sc), vehicle: steriod suspending solution): 96 % of control

Nc1nc(=S)c2ncn(C3OC(CO)CC3O)c2[nH]1 (configuration not stated)
T/C (dose: 1.5 mg/kg/injection, schedule: Q01DX009 (ip), vehicle: other): 99 % of control
T/C (dose: 3.0 mg/kg/injection, schedule: Q01DX009 (ip), vehicle: other): 99 % of control
T/C (dose: 6.0 mg/kg/injection, schedule: Q01DX009 (ip), vehicle: other): 107 % of control
T/C (dose: 12.5 mg/kg/injection, schedule: Q01DX015 (ip), vehicle: other): 87 % of control
